According to ChEMBL document CHEMBL4823305, “Design, synthesis and antibacterial evaluation of novel 3-O-substituted 15-membered azalides possessing 1,2,3-triazole side chains” (2021):
Converted amounts (≈) assume the structure as drawn. The source made the active and inactive calls. The rule behind the calls is not given here.

Experiments:
Klebsiella pneumoniae = assay: Antibacterial activity against Klebsiella pneumoniae ATCC10031 by broth microdilution method; type: functional
Staphylococcus aureus [1] = assay: Antibacterial activity against erythromycin-susceptible Staphylococcus aureus ATCC25923 by broth microdilution method; type: functional
Staphylococcus aureus [2] = assay: Antibacterial activity against penicillin-resistant Staphylococcus aureus by broth microdilution method; type: functional
Staphylococcus aureus [3] = assay: Antibacterial activity against methicillin-resistant Staphylococcus aureus ATCC43300 by broth microdilution method; type: functional
Enterococcus faecium = assay: Antibacterial activity against clinical isolate erythromycin-resistant Enterococcus faecium by broth microdilution method; type: functional
Enterococcus faecalis = assay: Antibacterial activity against vancomycin-susceptible Enterococcus faecalis ATCC29212 by broth microdilution method; type: functional
Staphylococcus aureus [4] = assay: Bactericidal activity against methicillin-resistant Staphylococcus aureus ATCC43300; type: functional
[5] = Ratio of MBC for bactericidal activity against methicillin-resistant Staphylococcus aureus ATCC43300 to MIC for antibacterial activity against methicillin-resistant Staphylococcus aureus ATCC43300 by broth microdilution method; type: functional
Bacillus subtilis = assay: Antibacterial activity against penicillin-susceptible Bacillus subtilis ATCC9372 by broth microdilution method; type: functional
Staphylococcus aureus [6] = assay: Bactericidal activity against methicillin-resistant Staphylococcus aureus ATCC43300 at 4 times of MIC measured up to 24 hrs; type: functional, organism-based; details: time hrs <=24
Staphylococcus aureus [7] = assay: Bactericidal activity against methicillin-resistant Staphylococcus aureus ATCC43300 at 2 times of MIC measured up to 24 hrs; type: functional, organism-based; details: time hrs <=24
Staphylococcus aureus [8] = assay: Antibacterial activity against methicillin-resistant Staphylococcus aureus ATCC43300 at 0.5 times of MIC measured up to 24 hrs by broth microdilution method; type: functional, organism-based; details: time hrs <=24
Staphylococcus aureus [9] = assay: Antibacterial activity against methicillin-resistant Staphylococcus aureus ATCC43300 at 1 times of MIC measured up to 9 hrs by broth microdilution method; type: functional, organism-based; details: time hrs <=9

Compound | MIC (Klebsiella pneumoniae) | MIC (Staphylococcus aureus [1]) | MIC (Staphylococcus aureus [2]) | MIC (Staphylococcus aureus [3]) | MIC (Enterococcus faecium) | MIC (Enterococcus faecalis) | MBC (Staphylococcus aureus [4]) | Ratio [5] | MIC (Bacillus subtilis) | inhibition (Staphylococcus aureus [6]) | inhibition (Staphylococcus aureus [7]) | inhibition (Staphylococcus aureus [8]) | inhibition (Staphylococcus aureus [9])
CC[C@H]1OC(=O)[C@H](C)[C@@H](OC(=O)NNC(=O)Cn2cc(-c3ccc(C(C)(C)C)cc3)nn2)[C@H](C)[C@@H](O[C@@H]2O[C@H](C)C[C@H](N(C)C)[C@H]2O)[C@](C)(O)C[C@@H](C)CN(C)[C@H](C)[C@H]2OC(=O)O[C@@]21C | 16 µg/mL (≈ 17.5 µM) | 16 µg/mL (≈ 17.5 µM) | 32 µg/mL (≈ 34.9 µM) | 32 µg/mL (≈ 34.9 µM) | 16 µg/mL (≈ 17.5 µM) | 4 µg/mL (≈ 4.37 µM) | > 256 µg/mL | >8 | 16 µg/mL (≈ 17.5 µM) |  |  |  | 
CCCCCc1ccc(-c2cn(CC(=O)NNC(=O)O[C@H]3[C@H](C)[C@@H](O[C@@H]4O[C@H](C)C[C@H](N(C)C)[C@H]4O)[C@](C)(O)C[C@@H](C)CN(C)[C@H](C)[C@H]4OC(=O)O[C@]4(C)[C@@H](CC)OC(=O)[C@@H]3C)nn2)cc1 | 32 µg/mL (≈ 34.4 µM) | 8 µg/mL (≈ 8.6 µM) | 16 µg/mL (≈ 17.2 µM) | 16 µg/mL (≈ 17.2 µM) | 8 µg/mL (≈ 8.6 µM) | 4 µg/mL (≈ 4.3 µM) | 126 µg/mL (≈ 135 µM) | 8 | 8 µg/mL (≈ 8.6 µM) | Active | Active | inactive | Active
